Assays:
SHP2 = SHP2 (Homo sapiens (Human), UniProt Q06124); test: SHP2 allosteric inhibitory enzyme activity assay (DiFMUP fluorescence); type: biochemical; details: read-out: SHP2 enzymatic activity IC50
In short: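 Human SHP2 (0.2 ng) preincubated 1 h at room temperature with 25 µM activating peptide IRS1_pY1172(dPEG8)pY1222 and compound (10-point series from 10 µM) in HEPES/NaCl/KCl/BRIJ-35/EDTA/DTT buffer. DiFMUP then added for 1 h; fluorescence at ex 340/em 450 nm, normalized to no-enzyme and no-inhibitor controls, IC50 from variable-slope fit.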

leukemia cells MV-4-11 = test: Cell proliferation assay, CELL TITER-GLO (CTG) luminescence, MV-4-11; type: cell-based
In short: (§1)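 NCI-H358 (2000 cells/well, ultra-low-attachment plates) and MV-4-11 cells were dosed 24 h after seeding at 1000 nM down to 0.1524 nM (3-fold steps). Viable-cell ATP was read by CellTiter-Glo luminescence after 96 h for NCI-H358 and 120 h for MV-4-11. IC50 came from a variable-slope fit of inhibition versus the 0 nM control.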

[1] = system: lung cancer cells NCI-H358; test: Cell proliferation assay, CELL TITER-GLO (CTG) luminescence, NCI-H358; type: cell-based; details: cultured for 96 hrs
In short: as §1

[2] = In vitro metabolic stability in liver microsomes, human; type: in vitro ADME; details: for microsomal CLint at 2 µM: pH 7.3, read-out: CLint (µL/min/mg protein) human
Description: (§2) Example D: In Vitro Metabolic Stability of Human and Rat Liver Microsomes Test Buffer Preparation
(§3) Dissolve 1900 mg of MgCl2 in 400 mL of ultrapure water.
(§4) Dissolve 17.42 g K2HPO4 and 13.65 g KH2PO4 into 1000 mL of ultrapure water, respectively. Mix a certain proportion of K2HPO4 and KH2PO4 to adjust the pH to 7.30 ± 0.10.
(§5) Prepare a solution of 10 ng/mL labetalol and 10 ng/mL glyburide in acetonitrile and store at 4° C.
(§6) Prepare 10 mM verapamil (positive control) and test article stock solutions in DMSO. Then, with MeOH/ACN/H2O solution (1:1:2 by volume), diluted to 50 µM and 200 µM working solutions, respectively.
(§7) experiment procedure: • 1) Add 40 µL MgCl2 and 306 µL PBS to 96 wells (set blank control group, positive control group, test compound sample group, and negative control group at the same time) • 2) Add 4 µL of compound working solution to each well (4 µL of PBS buffer for blank group) (Note: the final concentration of DMSO volume in the system is ≤ 0.5%) • 3) Add 10 µL of liver microsomes (concentration: 20 mg/mL) to each well, mix well, and pre-incubate at 37° C. for 10 minutes. • 4) Add 40 µL of 10 mM NADPH working solution to each well to start the reaction (add equal volume of PBS buffer for blank control group and negative control group respectively), the total reaction volume is 400 µL. • 5) Take out 50 µL samples from the above reaction solution at 0, 5, 15, and 45 minutes, and add 400 µL of reaction stop solution to stop the reaction • 6) Shake the sample after the termination of the reaction on a shaker for 5 minutes. • 7) Centrifuge the sample at 3200 rcf for 10 minutes. After the centrifugation is complete, transfer 50 µL of the supernatant to 200 µL of H2O for dilution for LC-MS/MS analysis.
(§8) Calculations of t½ and CLint are performed using the first-order kinetic equations: […]
(§9) where k represents the elimination constant, calculated from a log-linear plot of percentage remaining versus time. t½ represents half-life. Cprotein is the concentration of liver microsomes.

[3] = In vitro metabolic stability in liver microsomes, rat; type: in vitro ADME; details: for microsomal CLint at 2 µM: pH 7.3, read-out: CLint (µL/min/mg protein) rat
Description: as §2, §3, §4, §5, §6, §7, §8, §9

[4] = In vitro metabolic stability in liver microsomes, mouse; type: in vitro ADME; details: for microsomal CLint at 2 µM: pH 7.3, read-out: CLint (µL/min/mg protein) mouse
[5] = In vitro metabolic stability in liver microsomes, monkey; type: in vitro ADME; details: for microsomal CLint at 2 µM: pH 7.3, read-out: CLint (µL/min/mg protein) monkey
[6] = In vitro metabolic stability in liver microsomes, dog; type: in vitro ADME; details: for microsomal CLint at 2 µM: pH 7.3
[7] = Homo sapiens, MV4-11, cultured for 120 hrs
[8] = Homo sapiens, NCI-H358, ultra-low adsorption plate

Chain of SHP2 (Q06124 whole entry): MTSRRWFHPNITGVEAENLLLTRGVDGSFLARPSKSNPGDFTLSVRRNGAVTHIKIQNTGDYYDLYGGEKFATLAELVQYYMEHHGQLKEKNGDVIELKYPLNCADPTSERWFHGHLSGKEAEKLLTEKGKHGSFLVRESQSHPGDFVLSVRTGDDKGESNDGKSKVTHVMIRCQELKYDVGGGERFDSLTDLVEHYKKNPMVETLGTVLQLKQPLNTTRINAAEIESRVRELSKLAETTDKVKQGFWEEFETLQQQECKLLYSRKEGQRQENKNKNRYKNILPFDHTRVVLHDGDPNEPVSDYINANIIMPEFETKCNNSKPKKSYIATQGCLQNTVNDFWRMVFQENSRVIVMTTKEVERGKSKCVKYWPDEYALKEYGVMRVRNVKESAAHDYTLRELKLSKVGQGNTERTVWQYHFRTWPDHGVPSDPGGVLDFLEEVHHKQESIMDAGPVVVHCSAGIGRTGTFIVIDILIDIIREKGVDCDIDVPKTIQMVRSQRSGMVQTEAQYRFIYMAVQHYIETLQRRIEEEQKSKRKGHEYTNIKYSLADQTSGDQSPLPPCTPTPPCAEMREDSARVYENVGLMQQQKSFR

Structure (SMILES) | IC50 (SHP2) [nM] | IC50 (leukemia cells MV-4-11; [7]) [nM] | IC50 [1, 8] [nM] | microsomal CLint at 2 µM [2] [µL/min/mg] | microsomal CLint at 2 µM [3] [µL/min/mg] | microsomal CLint at 2 µM [4] [µL/min/mg] | microsomal CLint at 2 µM [5] [µL/min/mg] | microsomal CLint at 2 µM ([6]; dog, microsomes) [µL/min/mg] | IC50 (leukemia cells MV-4-11; cultured for 120 hrs) [nM] | IC50 ([1]; ultra-low adsorption plate) [nM] | CLint (µL/min/mg protein) human [2] [µL/min/mg protein] | CLint (µL/min/mg protein) rat [3] [µL/min/mg protein] | CLint (µL/min/mg protein) mouse [4] [µL/min/mg protein] | CLint (µL/min/mg protein) monkey [5] [µL/min/mg protein] | CLint (µL/min/mg protein) dog ([6]; dog liver microsomes) [µL/min/mg protein] | CLint (µL/min/mg protein) dog ([6]; dog, microsomes) [µL/min/mg protein]
NC(=O)c1ccc(OCC#Cc2cnc(N3CCC4(CC3)Cc3ccccc3[C@H]4N)cn2)cc1Cl [Compound A62, (S)-4-((3-(5-(1-amino-1,3-dihydrospiro[inden-2,4′-piperidin]-1′-yl)pyrazin-2-yl)prop-2-yn-1-yl)oxy)-2-chlorobenzamide] | 1.5 | 14 | 56 | 2.6 | 8.1 | 9.7 | 19.2 | 2.9 |  |  |  |  |  |  |  | 
N[C@@H]1c2ccccc2CC12CCN(c1ncc(C#CCOc3ccc4c(c3)NC(=O)CC4)nc1CO)CC2 [Compound A22] | 4.6 |  |  |  |  |  |  |  | 2.9 | 2.3 | 1.6 | 20.7 | 13.2 | 21.0 | 13.6 | 
N[C@@H]1c2ccccc2CC12CCN(c1ncc(C#CCNc3ncco3)nc1CO)CC2 [Compound A60] | 1.6 |  |  |  |  |  |  |  | 13 | 41 | 9.9 | 10.4 | 15.1 | 16.9 | 10.8 | 
NC(=O)c1ccc(OCC#Cc2cnc(N3CCC4(CC3)Cc3ccccc3[C@H]4N)c(CO)n2)cc1 [Compound A17, (S)-4-((3-(5-(1-amino-1,3-dihydrospiro[indene-2,4′-piperidine]-1′-yl)-6-(hydroxymethyl)pyrazin-2-yl)prop-2-yn-1-yl)oxy) benzamide] | 2.4 |  |  |  |  |  |  |  | 1 | 1.5 | 0.4 | 15.9 | 12.0 | 5.0 | 10.6 | 
CN(CC#Cc1cnc(N2CCC3(CC2)Cc2ccccc2[C@H]3N)c(CO)n1)c1ccc(C(N)=O)cc1 [Compound A55, (S)-4-((3-(5-(1-amino-1,3-dihydrospiro[indene-2,4′-piperidin]-1′-yl)-6-(hydroxymethyl)pyrazin-2-yl)prop-2-yn-1-yl)(methyl)amino)benzamide] | 2.7 | 9.6 | 26 | 14.7 | 24.7 | 14.3 | 20 | 20.7 |  |  |  |  |  |  |  | 
Cn1nccc1NCC#Cc1cnc(N2CCC3(CC2)Cc2ccccc2[C@H]3N)c(CO)n1 [Compound A61, (S)-(3-(1-amino-1,3-dihydrospiro[indene-2,4′-piperidin]-1′-yl)-6-(3-((1-methyl-1H-pyrazol-5-yl)amino)prop-1-yn-1-yl)pyrazin-2-yl)methanol] | 1.8 | 5.1 | 9.4 | 13 | 15.9 | 14.1 | 6.1 | 14.5 |  |  |  |  |  |  |  | 
N[C@@H]1c2ccccc2CC12CCN(c1ncc(C#CCOc3cccc(C(F)(F)F)c3)nc1CO)CC2 [Compound A13] | 5.8 |  |  |  |  |  |  |  | 18 | 28 | 6.3 | 2.4 | 6.6 | 2.6 | 0.9 | 
NC(=O)c1cccc(OCC#Cc2cnc(N3CCC4(CC3)Cc3ccccc3[C@H]4N)c(CO)n2)c1 [Compound A27, (S)-3-((3-(5-(1-amino-1,3-dihydrospiro[indene-2,4′-piperidine]-1′-yl)-6-(hydroxymethyl)pyrazin-2-yl)prop-2-yn-1-yl)oxy)benzamide] | 1.9 | 1.4 | 1.5 | 4 | 7.5 | 17.7 | 15.9 | 4.8 |  |  |  |  |  |  |  | 
Nc1cc(OCC#Cc2cnc(N3CCC4(CC3)Cc3ccccc3[C@H]4N)c(CO)n2)ccn1 [Compound A26, (S)-(3-(1-amino-1,3-dihydrospiro [indene-2,4′-piperidine]-1′-yl)-6-(3-((2-Aminopyridin-4-yl)oxy)prop-1-yn-1-yl)pyrazin-2-yl) methanol] | 1.6 | 1.8 | 5.2 | 2.2 | 9 | 9.8 | 6.3 | 1.2 |  |  |  |  |  |  |  | 
NC(=O)c1ccc(OCC#Cc2cnc(N3CCC4(CC3)Cc3ccccc3[C@H]4N)c(CO)n2)cc1F [Compound A50, (S)-4-((3-(5-(1-amino-1,3-dihydrospiro[indene-2,4′-piperidin]-1′-yl)-6-(hydroxymethy 1)pyrazin-2-yl)prop-2-yn-1-yl)oxy)-2-fluorobenzamide] | 1.7 |  |  |  |  |  |  |  | 2.2 | 3.3 | 7.4 | 11.4 | 3.1 | 5.9 |  | 5.2
NC(=O)c1cccc(NCC#Cc2cnc(N3CCC4(CC3)Cc3ccccc3[C@H]4N)c(CO)n2)c1 [Compound A81, (S)-3-((3-(5-(1-amino-1,3-dihydrospiro[indene-2,4′-piperidin]-1′-yl)-6-(hydroxymethyl)pyrazin-2-yl)prop-2-yn-1-yl)amino)benzamide] |  | 1.8 | 6.3 | 14.2 | 18.4 | 11.5 | 4 | 13.5 |  |  |  |  |  |  |  | 
N[C@@H]1c2ccccc2CC12CCN(c1ncc(C#CCOc3ccc4c(c3)CNC4=O)nc1CO)CC2 [Compound A51, (S)-5-((3-(5-(1-amino-1,3-dihydrospiro[indene-2,4′-piperidin]-1′-yl)-6-(hydroxymethy 1)pyrazin-2-yl)prop-2-yn-1-yl)oxy)isoindolin-1-one] | 2.4 |  |  |  |  |  |  |  | 1 | 0.8 | 9.9 | 12.5 | 16.7 | 26.2 |  | 22.2
N[C@@H]1c2ccccc2CC12CCN(c1ncc(C#CCOc3ccc(C(O)C(F)(F)F)cc3)nc1CO)CC2 (stereo partly drawn) [Compound A80, 1-(4-((3-(5-((S)-1-amino-1,3-dihydrospiro[indene-2,4′-piperidin]-1′-yl)-6-(hydroxymethyl)pyrazin-2-yl)prop-2-yn-1-yl)oxy)phenyl)-2,2,2-trifluoroethane-1-ol] | 2.8 | 10.4 |  | 2.7 | 14 | 9 | 1 | 3.1 |  |  |  |  |  |  |  | 

Source: patent publication US20230339882A1, “SHP2 INHIBITOR AND COMPOSITION AND APPLICATION THEREOF” (Betta Pharmaceuticals Co., Ltd., priority 2020, published 2023)
